Assay results published in PMC5072737, “Heterologous Expression and Delivery of Biologically Active Exendin-4 by Lactobacillus paracasei L14” (PLoS ONE, 2016).

Key:
INS-1 cells [1] = experiment: Staurosporine-induced apoptosis assay (Annexin V-PI, flow cytometry) in INS-1 cells; assay type: cell-based, rat; details: pretreatment with the agent (none for staurosporine alone), then staurosporine 1 μmol/l for 1 h, n = 3
Protocol: INS-1 cells were seeded in 96-well plates at a density of 2 × 10^4 cells per well. After 36 h incubation, the cells were grown to nearly 60% confluence and the medium was replaced with RPMI 1640–exendin-4 medium diluted 1:1 (v/v) with fresh RPMI 1640 containing 10% FBS (100 μl per well). Standard GLP-1 in RPMI 1640 medium (100 nmol/l) was used as a positive control and pure RPMI 1640 medium was used as a blank control. The mixture was incubated for 24 h. The PI3K (phosphatidylinositol-3-kinase) antagonist treatment cells were preincubated with wortmannin (100 nmol/l) for 15 min before the treatment. The number of viable cells was then analyzed by cell counting kit-8 (CCK-8) assay (Biyuntian Biotech Co. Ltd.) based on the formation of formazan with sensitive changes in OD450 values. […] The absorbance was read at 450 nm using a Multiskan MK3 ELISA plate reader to determine the in vitro cell proliferation. For apoptosis assays, staurosporine (1 μmol/l) was added in all treatment groups for 1 h, after which the cells were treated with Annexin V-PI (propidium iodide) cell apoptosis kit (Biyuntian Biotech Co. Ltd.) and apoptosis was measured by flow cytometry using a FACScan (Becton Dickinson).

PDX-1 = experiment: qRT-PCR of PDX-1 mRNA expression in INS-1 cells; assay type: cell-based, Rattus norvegicus; details: INS-1 cells treated 2 h, ΔΔCT, β-actin reference, n = 3
Protocol: (§1) INS-1 cells were seeded in 24-well plates at a density of 10^5 cells per well and grown to 100% confluence before the assay. The medium was changed 24 h before the assay. For the assay, cells were quickly rinsed in 1 ml Hank's balanced salt solution (HBSS) with 3 mM glucose followed by a 2 h preincubation with 1 ml of the same buffer. Then the buffer was discarded, RPMI 1640–exendin-4 medium diluted 1:1 (v/v) with fresh medium plus 5 mM glucose (600 μl per well) were added, and the mixture was incubated for 2 h. Standard GLP-1 (100 nmol/l) in RPMI 1640 medium was used as a positive control. […] At the end of the incubation, supernatant was collected and centrifuged for 10 min at 4000 × g at 4°C and insulin concentration was determined by ELISA kit (Millipore, St. Charles, MO, USA). The cells were collected to analyze mRNA expression of pancreatic duodenal homeobox-1 (PDX-1) and insulin gene (Insulin).
(§2) Total RNA was isolated from INS-1 cells using TRIzol Reagent (Invitrogen). Reverse transcription was performed using PrimeScript II first-strand cDNA synthesis kit (Takara, China), containing 1 μg of total RNA as the template. qRT-PCR was carried out using a SYBR Green assay kit (Tiangen). Specific primers for PDX-1, Insulin and the internal control gene β-actin (Actb) from Rattus norvegicus were designed with Primer Premier 5 software (Table 2). […]

Insulin (Ins1 and Ins2) = experiment: qRT-PCR of insulin gene mRNA expression in INS-1 cells; assay type: cell-based, Rattus norvegicus; details: INS-1 cells treated 2 h, ΔΔCT, β-actin reference, n = 3
Protocol: as §1, §2

INS-1 cells [2] = experiment: Insulin secretion assay in INS-1 cells; assay type: cell-based, rat; details: 5 mM glucose
Protocol: as §1, with “buffer.” for “buffer. Then the buffer was discarded, RPMI 1640–exendin-4 medium diluted 1:1 (v/v) with fresh medium plus 5 mM glucose (600 μl per well) were added, and the mixture was incubated for 2 h. Standard GLP-1 (100 nmol/l) in RPMI 1640 medium was used as a positive control.”

[3] = native GLP-1, rapid inactivation by DPP-IV; cited from earlier work
Source text: Glucagon-like peptide-1 (GLP-1) is a potent incretin produced by L-cells of the distal ileum and colon in response to nutrient intake. It has a variety of antidiabetic effects that are mediated through β-cells in pancreatic islets and peripheral tissues. These include not only the promotion of glucose-dependent insulin secretion and inhibition of glucagon secretion, but also inhibition of food intake and body weight gain by delaying gastric emptying, increasing β-cell mass, and enhancing insulin sensitivity. However, despite its favorable antidiabet ...

Caco-2 cell monolayer = experiment: Transport of exendin-4 through Caco-2 monolayer; assay type: in vitro ADME; details: Caco-2 monolayer (~21 days, transwell 0.4 μm, 4.67 cm^2), apical to basolateral, s-DMEM without antibiotics, 37°C; first 3 h; ELISA; mean ± SD, n = 3
Protocol: Caco-2 cells (10–20 passages) were cultivated in 25-cm^2 flasks in DMEM supplemented with 10% (v/v) FBS, 1% (v/v) non-essential amino acids and 100 IU/ml penicillin–100μg/ml streptomycin (s-DMEM) at 37°C in an atmosphere of 5% CO2 and high humidity. Upon 80% confluence, cells were harvested using 0.25% trypsin EDTA and seeded on the polyester inserts (0.4 μm pore size, 24 mm diameter, 4.67 cm^2 grown surface, Costar, Corning, NY) in 6-well transwell plates at a density of 10^5 cell/cm^2 and incubated under normal cell culture conditions. The culture medium was replaced every other day for the first week and then every day until it was ready for transport studies when the monolayer became confluent and the transepithelial electrical resistance (TEER) reading reached a plateau (about 21 days). The TEER was monitored according to the method described by Hubatsch et al.
After the Caco-2 monolayer cell became confluent, the culture medium was washed twice by PBS (pH 7.4). […] Caco-2 cell viability was then measured by trypan blue assay at 0, 2, 4 and 6 h after the addition of L14/pMG76e-exendin-4 cells. […] At predetermined time points, 100 and 200 μl supernatant samples were withdrawn from the apical and basolateral sides, respectively, for exendin-4 quantification by ELISA and replaced with an equal volume of s-DMEM without the antibiotics. […]

Row | Compound | Number of earliest-stage apoptotic cells, % of the control with no staurosporine (INS-1 cells [1]) | PDX-1 mRNA expression, fold of the blank control (PDX-1) | Insulin mRNA expression, fold of the blank control (Insulin (Ins1 and Ins2)) | Insulin secretion, higher than the blank control (RPMI 1640 only) (INS-1 cells [2]; 2 h, blank control 66.5 ± 0.5 ng/ml) | Insulin secretion (insulin concentration in supernatant) (INS-1 cells [2]; 2 h incubation, conditioned medium diluted 1:1 with fresh medium, GLP-1 at 100 nmol/l, insulin ELISA, mean ± SD, n = 3) | Half-life in vivo [3] | Exendin-4 transport rate through the cell monolayer (Caco-2 cell monolayer)
1 | CN[C@@H]1C[C@H]2O[C@@](C)([C@@H]1OC)n1c3ccccc3c3c4c(c5c6ccccc6n2c5c31)C(=O)NC4 [staurosporine] | 264.3% |  |  |  |  |  | 
2 | Glucagon-like peptide-1 [GLP-1] | 170% | 1.9 fold | 1.7 fold | 7% | 71.4 ± 0.7 ng/mL | 1 to 2 min | 
3 | exendin-4 [standard exendin-4] |  |  |  |  |  |  | 0.15 ± 0.013 pMol cm^-2 h^-1
